Results from patent publication US4209517A, “α-Ethylenic alcohols and ketones, their preparation, and their use as medicaments” (Unicler, priority 1978, dated 1980).

Columns and labels:
[1] = Toxicity: LD50 in mice, intraperitoneal route (Log-Probits method of Miller and Tainter); details: mouse, in vivo, IP
Method: The LD50 of the products was measured in mice by the intraperitoneal route in accordance with the "Log-Probits" method of Miller and Tainter (Proc. Soc. Exptl. Biol. Med. 1944; 57, 261-264).

[2] = system: narcosis produced by hexobarbital; assay: Modification of narcosis produced by hexobarbital; format: in vivo; details: Mus musculus, 0.5 h, mice, half an hour before hexobarbital 70 mg/kg, read-out: Narcosis potentialisation T (percentage increase in sleeping time induced by hexobarbital); for change in vivo at 200 mg/kg: 200 mg/kg IP; for change in vivo at 100 mg/kg: 100 mg/kg IP
Method: Mice, each weighing about 20 g, received the product under investigation by the intraperitoneal route. Half an hour later sodium hexobarbital was injected by the same route at a dosage of 70 mg/kg.
The animals were placed on a hot plate kept at a constant temperature of 27° C. It is considered that sleep is established when a mouse, placed in the dorsal decubitus, is incapable of turning over and standing on its paws.
The narcosis potentialisation is evaluated by the percentage increase in sleeping time induced by hexobarbital (T).

[3] = system: attack caused by pentetrazol; assay: Anti-convulsant action: attack caused by pentetrazol; format: in vivo; details: mice, 30 min before pentetrazol 125 mg/kg IP
Method: A convulsive attack is caused by pentetrazol which, when injected into mice intraperitoneally at a dosage of 125 mg/kg, produces 100% mortality in 5 to 7 minutes.
Mice, each weighing about 20 g, are given the product being studied intraperitoneally, thirty minutes before the administration of pentetrazol.

[4] = system: epileptic attack by electric shock; assay: Anti-convulsant action: electric shock; format: in vivo; details: Rattus norvegicus, 0.5 h, male rats, 30 min before 30 volts for 0.5 second, read-out: Electric shock: percentage protection (P); for responders at 200 mg/kg: 200 mg/kg IP; for responders at 100 mg/kg: 100 mg/kg IP
Method: The application of an electric current of 30 volts for 0.5 second to the cerebral hemispheres produces an epileptic attack.
Male rats each weighing 180 to 200 g receive intraperitoneally the solvent or the product being investigated. Thirty minutes later the animals are subjected to electric shocks. It is noted whether the attack is complete or incomplete, and the percentage protection (P) conferred by the product administered is determined.

[5] = system: blepharospasm caused by reserpine; assay: Antagonism to reserpine (blepharospasm); format: in vivo; set-up: key: The inhibition of blepharospasm is marked from 0 to +++; ±: The inhibition of blepharospasm is marked from 0 to +++; The inhibition of blepharospasm is marked from 0 to +++; The inhibition of blepharospasm is marked from 0 to +++; details: male Swiss mice, before reserpine 5 mg/kg IP
Method: (Chen G., and Bohner B., (1961) J. pharmacol. Exptl. Therap. 131, 179).
Reserpine administered to mice in a dosage of 5 mg/kg intraperitoneally produces in the first few hours a more or less complete closure of the eyelids in most of the animals. The administration of certain products inhibits the blepharospasm caused by reserpine.
Male Swiss mice are distributed into batches of 10 mice and each experiment involves at least 3 batches:
a control batch that receives only the solvent and reserpine
a batch treated with a reference product: we selected Imipramine
a treated batch receiving the product being tested.
The experimental products are administered intraperitoneally either 30 minutes or 2 hours before the intraperitoneal injection of reserpine at a dosage of 5 mg/kg, in order to study their activity as a function of time.
The degree of ptosis for each eye and each animal is observed every 30 minutes for 4 to 5 hours, using RUBIN's score method. The activity of the product is determined by comparison with the result obtained with the treated control batch. The inhibition of blepharospasm is marked from 0 to +++.

[6] = system: central nervous system; assay: Activity on the central nervous system (overall conclusion of the pharmacological tests); format: in vivo; details: conclusion in words
Text: This was investigated by observing the behaviour of animals, by studying the modifications in narcosis produced by hexobarbital and studying the anti-convulsant power.

[7] = Remarks on the hydrochloride (Table I); format: physicochemical; details: hydrochloride column of Table I
[8] = Mus musculus, 0.5 h, 200 mg/kg IP, read-out: Pentrazole: percentage protection (P)

`CC(C)=CC(=O)C=Cc1ccc2c(c1)OCO2` [compound 1003] gave an LD50 [1] of 2000 mg/kg, a change in vivo at 200 mg/kg [2] of 223% and a responders at 200 mg/kg [3, 8] of 0%. For the same molecule, the “Pentrazole: time of death as multiple of that (t) of the control group” value (“Pentrazole: time of death” for short) ([3]; 200 mg/kg IP) was 15 t ×, the responders at 200 mg/kg [4] was 0% and the “Inhibition of blepharospasm caused by reserpine” value (“Inhibition” below) ([5]; 200 mg/kg IP) was 0.
Work on `CC(C)=CCCC(=O)C=Cc1ccc2c(c1)OCO2` [compound 998] yielded an LD50 [1] of 2000 mg/kg, a change in vivo at 200 mg/kg [2] of 490% and a responders at 200 mg/kg [3, 8] of 0%. For the same molecule, the responders at 200 mg/kg [4] was 30% and the “Inhibition” value ([5]; 200 mg/kg IP) was 0.
In the case of `CC(C)=CCCC(O)C=Cc1ccc2c(c1)OCO2` (centres unmarked) [compound 999], the LD50 [1] is reported as 1000 mg/kg, the change in vivo at 100 mg/kg [2] is reported as 201% and the responders at 100 mg/kg ([3]; Mus musculus, 0.5 h, 100 mg/kg IP, read-out: Pentrazole: percentage protection (P)) is reported as 0%. For the same molecule, the “Pentrazole: time of death” value ([3]; 100 mg/kg IP) was 5 t ×, the responders at 100 mg/kg [4] was 90% and the “Inhibition” value ([5]; 50 mg/kg IP) was 0.
Molecule `O=C(C=Cc1ccc2c(c1)OCO2)C1CCCCC1` [compound 1036] has an LD50 [1] of 2000 mg/kg, a change in vivo at 200 mg/kg [2] of 135% and a responders at 200 mg/kg [3, 8] of 10%. The “Pentrazole: time of death” value ([3]; 200 mg/kg IP) was 2.6 t × and the responders at 200 mg/kg [4] was 0%.
Molecule `CC(CN1CCN(C)CC1)C(O)C=Cc1ccc2c(c1)OCO2` (centres unmarked) [compound 1202] has an LD50 [1] of 250 mg/kg, a change in vivo at 25 mg/kg ([2]; 25 mg/kg IP) of 5% and a responders at 25 mg/kg ([3]; Mus musculus, 0.5 h, 25 mg/kg IP, read-out: Pentrazole: percentage protection (P)) of 10%. For the same molecule, the “Pentrazole: time of death” value ([3]; 25 mg/kg IP) was 2 t ×, the responders at 25 mg/kg ([4]; 25 mg/kg IP) was 10% and the “Inhibition” value ([5]; 25 mg/kg IP) was 0.
Molecule `CC(C(O)C=Cc1ccc2c(c1)OCO2)N1CCOCC1` (centres unmarked) [compound 1340] has an LD50 [1] of 400 mg/kg, a responders at 40 mg/kg ([3]; Mus musculus, 0.5 h, 40 mg/kg IP, read-out: Pentrazole: percentage protection (P)) of 10% and a responders at 40 mg/kg ([4]; 40 mg/kg IP) of 10%.
Work on `OC(C=Cc1ccc2c(c1)OCO2)CN1CCOCC1` (centres unmarked) [compound 997] yielded an LD50 [1] of 500 mg/kg, a change in vivo at 50 mg/kg ([2]; 50 mg/kg IP) of 0% and a responders at 50 mg/kg ([3]; Mus musculus, 0.5 h, 50 mg/kg IP, read-out: Pentrazole: percentage protection (P)) of 0%. The “Pentrazole: time of death” value ([3]; 50 mg/kg IP) was 2 t ×, the responders at 50 mg/kg ([4]; 50 mg/kg IP) was 60% and the “Inhibition” value ([5]; 50 mg/kg IP) was “+++”. For the same molecule, the Usefulness as anti-depressants [6] was “particularly useful as anti-depressants”.
Molecule `OC(C=Cc1ccc2c(c1)OCO2)C1CCCCC1` (centres unmarked) [compound 1037] has an LD50 [1] of 1000 mg/kg, a change in vivo at 100 mg/kg [2] of 225% and a responders at 100 mg/kg [4] of 0%.
`O=C(C=Cc1ccc2c(c1)OCO2)CN1CCOCC1` [compound 996] gave an LD50 [1] of 750 mg/kg, a change in vivo at 75 mg/kg ([2]; 75 mg/kg IP) of 106% and a responders at 75 mg/kg ([3]; Mus musculus, 0.5 h, 75 mg/kg IP, read-out: Pentrazole: percentage protection (P)) of 0%. For the same molecule, the responders at 75 mg/kg ([4]; 75 mg/kg IP) was 50%, the “Inhibition” value ([5]; 75 mg/kg IP) was “+” and the Usefulness as anti-depressants [6] was “particularly useful as anti-depressants”.
`CC(C(=O)C=Cc1ccc2c(c1)OCO2)N1CCOCC1` (centres unmarked) [compound 1321] gave an LD50 [1] of 850 mg/kg, a change in vivo at 85 mg/kg ([2]; 85 mg/kg IP) of 227% and a responders at 85 mg/kg ([3]; Mus musculus, 0.5 h, 85 mg/kg IP, read-out: Pentrazole: percentage protection (P)) of 20%. For the same molecule, the responders at 85 mg/kg ([4]; 85 mg/kg IP) was 50% and the “Inhibition” value ([5]; 85 mg/kg IP) was 0.
`CC(CN1CCOCC1)C(O)C=Cc1ccc2c(c1)OCO2` (centres unmarked) [compound 1156] showed an LD50 [1] of 600 mg/kg, a change in vivo at 60 mg/kg ([2]; 60 mg/kg IP) of 79% and a responders at 60 mg/kg ([3]; Mus musculus, 0.5 h, 60 mg/kg IP, read-out: Pentrazole: percentage protection (P)) of 10%. For the same molecule, the “Pentrazole: time of death” value ([3]; 60 mg/kg IP) was 1.6 t ×, the responders at 60 mg/kg ([4]; 60 mg/kg IP) was 50% and the “Inhibition” value ([5]; 60 mg/kg IP) was 0.
Work on `CC(CN1CCN(C)CC1)C(=O)C=Cc1ccc2c(c1)OCO2` (centres unmarked) [compound 1201] yielded an LD50 [1] of 75 mg/kg, a change in vivo at 7.5 mg/kg ([2]; 7.5 mg/kg IP) of 17% and a responders at 7.5 mg/kg ([3]; Mus musculus, 0.5 h, 7.5 mg/kg IP, read-out: Pentrazole: percentage protection (P)) of 0%. For the same molecule, the “Pentrazole: time of death” value ([3]; 7.5 mg/kg IP) was 2 t ×, the responders at 7.5 mg/kg ([4]; 7.5 mg/kg IP) was 10% and the “Inhibition” value ([5]; 7.5 mg/kg IP) was “±”.
With `OC(C=Cc1ccc2c(c1)OCO2)CCCN1CCCCC1` (centres unmarked) [AB 754] the Hygroscopicity of hydrochloride [7] was “hygroscopic”.
